The subject of series [1] is Abutilon. The series is described as follows: Pre-emergence test. In kind it is in vivo. The conditions noted are these: application rate of 250 g/ha, after three weeks, 0%=no effect, 100%=total destruction. Here is the method: (§1) Pre-Emergence Test Solvent: 5 parts by weight of acetone Emulsifier: 1 part by weight of alkylaryl polyglycol ether To produce a suitable preparation of active compound, 1 part by weight of active compound is mixed with the stated amount of solvent, the stated amount of emulsifier is added and the concentrate is diluted with water to the desired concentration. Seeds of the test plants are sown in normal soil. After about 24 hours, the soil is sprayed with the preparation of active compound in such a way as to apply the particular amounts of active compound desired per unit area. The concentration of the spray liquor is chosen such that the particular amounts of active compound desired are applied in 1000 l of water/ha. After three weeks, the degree of damage to the plants is rated in % damage in comparison to the development of the untreated control. The figures denote: 0%=no effect (like untreated control) 100%=total destruction

The test system of series [2] is Amaranthus. The series is described as follows: Pre-emergence test. In kind it is in vivo. The note with it: application rate of 250 g/ha, after three weeks, 0%=no effect, 100%=total destruction. Here is the method:
as §1

The test system of series [3] is Setaria. The series is described as follows: Pre-emergence test. In kind it is in vivo. The conditions noted are these: application rate of 250 g/ha, after three weeks, 0%=no effect, 100%=total destruction. Here is the method:
as §1

For series [4], the system named is Sinapis. The series can be described thus: Pre-emergence test. It is filed as in vivo. The conditions noted are these: application rate of 250 g/ha, after three weeks, 0%=no effect, 100%=total destruction. Here is the method: as §1
The test system of series [5] is Abutilon. The series can be described thus: Post-emergence test. In kind it is in vivo. The conditions noted are these: application rate of 250 glha, after three weeks, 0%=no effect, 100%=total destruction. Here is the method: (§2) Post-Emergence Test Solvent: 5 parts by weight of acetone Emulsifier: 1 part by weight of alkylaryl polyglycol ether To produce a suitable preparation of active compound, 1 part by weight of active compound is mixed with the stated amount of solvent, the stated amount of emulsifier is added and the concentrate is diluted with water to the desired concentration. Test plants which have a height of 5-15 cm are sprayed with the preparation of active compound in such a way that the particular amounts of active compound desired are applied per unit area. The concentration of the spray liquor is chosen such that the particular amounts of active compound desired are applied in […] of water/ha. After three weeks, the degree of damage to the plants is rated in % damage in comparison to the development of the untreated control. The figures denote: 0%=no effect (like untreated control) 100%=total destruction

The subject of series [6] is Amaranthus. The series is described as follows: Post-emergence test. It is filed as in vivo. The conditions noted are these: application rate of 250 glha, after three weeks, 0%=no effect, 100%=total destruction. Here is the method: as §2
For series [7], the system named is Setaria. The series can be described thus: Post-emergence test. In kind it is in vivo. The conditions noted are these: application rate of 250 glha, after three weeks, 0%=no effect, 100%=total destruction. Here is the method:
as §2

For series [8], the system named is Sinapis. The series can be described thus: Post-emergence test. The conditions noted are these: application rate of 250 glha, after three weeks, 0%=no effect, 100%=total destruction. It is filed as in vivo. Here is the method: as §2
Series [9] deals with mustard beetle larvae (Phaedon cochleariae). The series can be described thus: Phaedon larvae test. In kind it is in vivo. The conditions noted are these: active compound concentration of 0.1%; after 7 days; dipped cabbage leaves (Brassica oleracea). Here is the method: Phaedon Larvae Test Solvent: 7 parts by weight of dimethylformamide Emulsifier: 1 part by weight of alkylaryl polyglycol ether To produce a suitable preparation of active compound, 1 part by weight of active compound is mixed with the stated amount of solvent and the stated amount of emulsifier, and the concentrate is diluted with water to the desired concentration. Cabbage leaves (Brassica oleracea) are treated by being dipped into the preparation of active compound of the desired concentration and are populated with mustard beetle larvae (Phaedon cochleariae) while the leaves are still moist. After the desired period of time, the kill in % is determined. 100% means that all beetle larvae have been killed; 0% means that none of the beetle larvae have been killed.

SMILES strings stand for the structures.

In the case of `Nn1c(C(F)(F)F)cc(=O)n(-c2ccc(OCc3ccc(Cl)nc3)cc2F)c1=O` [compound 3], the “degree of damage to the plants (% damage), Abutilon” value (from here on “degree … (% damage), Abutilon”) in series [1] and in series [5] was 100% each time. Moreover, the “degree of damage to the plants (% damage), Amaranthus” value (from here on “degree … (% damage), Amaranthus”) in series [2] and in series [6] was 100% in each case. The “degree of damage to the plants (% damage), Setaria” value (“degree … (% damage), Setaria” below) in series [3] and in series [7] was 100% in each case. The “degree of damage to the plants (% damage), Sinapis” value (“degree … (% damage), Sinapis” below) in series [4] and in [8] was 100% each time. The same molecule came in with a kill in % in series [9] of 100%.

Broadly, the melting point is the temperature, or range, at which the solid turns liquid. On to `O=c1cc(C(F)(F)F)[nH]c(=O)n1-c1ccc(OCc2ccc(Cl)nc2)cc1F` [Example 1, 1-[2-fluoro-4-(2-chloro-pyridin-5-y1-methoxy)-phenyl]-4-trifluoromethyl-3,6-dihydro-2,6-dioxo-1(2H)-pyrimidine], for which the melting point turned out to be 212 °C.

The molecule `Nn1c(C(F)(F)F)cc(=O)n(-c2ccc(OCc3ccc(Cl)nc3)cc2F)c1=O` [Preparation Example 3, 3-amino-1-[2-fluoro4-(2-chloro-pyridin-5-yl-methoxy)-phenyl]4-trifluoromethyl-3,6-dihydro-2,6-dioxo-1 (2H)-pyrimidine] registered a melting point of 171 °C.

For `Cn1c(C(F)(F)F)cc(=O)n(-c2ccc(OCc3ccc(Cl)nc3)cc2F)c1=O` [Preparation Example 2, 1-[2-fluoro4-(2-chloro-pyridin-5-yl-methoxy)-phenyl]-3-methyl4-trifluoromethyl-3,6-dihydro-2,6-dioxo-1 (2H)-pyrimidine], the melting point was found to be 164 °C. Besides, the “degree … (% damage), Abutilon” value in series [1] was 100%. Also, the “degree … (% damage), Amaranthus” value in series [2] came to 100%. Moreover, the “degree … (% damage), Setaria” value in series [3] was 100%. In addition, the “degree … (% damage), Sinapis” value in series [4] is listed as 100%. Further, in series [5], the “degree … (% damage), Abutilon” value is reported as 100%. Further, the “degree … (% damage), Amaranthus” value in series [6] was 100%. Also, the “degree … (% damage), Setaria” value in [7] turned out to be 100%. In addition, the “degree … (% damage), Sinapis” value in series [8] was 100%.

(Values after patent US6448203B1, “Substituted aryluracils” (Bayer Aktiengesellschaft, priority 1997, dated 2002).)
